In PubChem BioAssay (NCI):
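How tested: cells in 96-well plates exposed to compound for 48 hours at five concentrations. Here, GI50 denotes the concentration required for 50% inhibition of growth. At the TGI there is no net growth.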

Experiments:
Test in all cases: inhibition of tumour cell growth, NCI panel, 48 h
[1] = tested on: 786-0 renal
[2] = tested on: A498 renal
[3] = tested on: A549 NSCLC
[4] = tested on: ACHN renal
[5] = tested on: CAKI-1 renal
[6] = tested on: CCRF-CEM leukemia
[7] = tested on: COLO 205 colon
[8] = tested on: DMS 114 small cell lung
[9] = tested on: DMS 273 small cell lung
[10] = tested on: EKVX NSCLC
[11] = tested on: HCC-2998 colon
[12] = tested on: HCT-116 colon
[13] = tested on: HCT-15 colon
[14] = tested on: HL-60(TB) leukemia
[15] = tested on: HOP-18 NSCLC
[16] = tested on: HOP-62 NSCLC
[17] = tested on: HOP-92 NSCLC
[18] = tested on: HT29 colon
[19] = tested on: IGROV1 ovarian
[20] = tested on: K-562 leukemia
[21] = tested on: KM12 colon
[22] = tested on: KM20L2 colon
[23] = tested on: LOX IMVI melanoma
[24] = tested on: LXFL 529 NSCLC
[25] = tested on: M14 melanoma
[26] = tested on: M19-MEL melanoma
[27] = tested on: MALME-3M melanoma
[28] = tested on: MOLT-4 leukemia
[29] = tested on: NCI-H23 lung
[30] = tested on: NCI-H460 lung
[31] = tested on: NCI-H522 lung
[32] = tested on: OVCAR-3 ovarian
[33] = tested on: OVCAR-4 ovarian
[34] = tested on: OVCAR-5 ovarian
[35] = tested on: OVCAR-8 ovarian
[36] = tested on: RPMI-8226 leukemia
[37] = tested on: RXF-631 renal
[38] = tested on: SF-268 CNS
[39] = tested on: SF-295 CNS
[40] = tested on: SF-539 CNS
[41] = tested on: SK-MEL-2 melanoma
[42] = tested on: SK-MEL-28 melanoma
[43] = tested on: SK-MEL-5 melanoma
[44] = tested on: SK-OV-3 ovarian
[45] = tested on: SN12C renal
[46] = tested on: SNB-19 CNS
[47] = tested on: SNB-75 CNS
[48] = tested on: SR leukemia
[49] = tested on: SW-620 colon
[50] = tested on: TK-10 renal
[51] = tested on: U251 CNS
[52] = tested on: UACC-257 melanoma
[53] = tested on: UACC-62 melanoma
[54] = tested on: UO-31 renal
[55] = tested on: XF 498 CNS
[56] = tested on: DLD-1 colon
[57] = tested on: SNB-78 CNS
[58] = tested on: NCI-H226 lung
[59] = tested on: RXF 393 renal

SMILES: Cc1ccc(NC(=O)CC(=O)n2nc(-c3ccccc3)c(N=Nc3ccccc3Cl)c2-c2ccccc2)cc1
- TGI [1]: > 100 µM
- TGI [2]: > 100 µM
- TGI [3]: > 100 µM
- TGI [4]: > 100 µM
- TGI [5]: > 100 µM
- TGI [6]: > 100 µM
- GI50 [7]: > 100 µM
- TGI [7]: > 100 µM
- GI50 [8]: > 100 µM
- TGI [8]: > 100 µM
- TGI [9]: > 100 µM
- TGI [10]: > 100 µM
- GI50 [11]: > 100 µM
- TGI [11]: > 100 µM
- TGI [12]: > 100 µM
- GI50 [13]: > 100 µM
- TGI [13]: > 100 µM
- GI50 [14]: 93.8 µM
- TGI [14]: > 100 µM
- TGI [15]: > 100 µM
- TGI [16]: > 100 µM
- TGI [17]: 63 µM
- GI50 [18]: > 100 µM
- TGI [18]: > 100 µM
- GI50 [19]: > 100 µM
- TGI [19]: > 100 µM
- TGI [20]: > 100 µM
- GI50 [21]: > 100 µM
- TGI [21]: > 100 µM
- GI50 [22]: > 100 µM
- TGI [22]: > 100 µM
- TGI [23]: > 100 µM
- TGI [24]: > 100 µM
- TGI [25]: > 100 µM
- GI50 [26]: > 100 µM
- TGI [26]: > 100 µM
- TGI [27]: > 100 µM
- GI50 [28]: > 100 µM
- TGI [28]: > 100 µM
- TGI [29]: > 100 µM
- TGI [30]: > 100 µM
- TGI [31]: > 100 µM
- GI50 [32]: > 100 µM
- TGI [32]: > 100 µM
- TGI [33]: 87.2 µM
- TGI [34]: > 100 µM
- TGI [35]: > 100 µM
- GI50 [36]: > 100 µM
- TGI [36]: > 100 µM
- TGI [37]: > 100 µM
- GI50 [38]: > 100 µM
- TGI [38]: > 100 µM
- TGI [39]: > 100 µM
- TGI [40]: > 100 µM
- GI50 [41]: > 100 µM
- TGI [41]: > 100 µM
- TGI [42]: > 100 µM
- TGI [43]: > 100 µM
- TGI [44]: 60.5 µM
- GI50 [45]: > 100 µM
- TGI [45]: > 100 µM
- TGI [46]: > 100 µM
- TGI [47]: 42.1 µM
- TGI [48]: > 100 µM
- TGI [49]: > 100 µM
- TGI [50]: > 100 µM
- TGI [51]: > 100 µM
- GI50 [52]: > 100 µM
- TGI [52]: > 100 µM
- TGI [53]: > 100 µM
- GI50 [54]: > 100 µM
- TGI [54]: > 100 µM
- TGI [55]: > 100 µM

SMILES: O=C(O)CC12C3C4C5C3C1C5C42 (stereo not given)
- TGI [1]: > 100 µM
- TGI [2]: > 100 µM
- TGI [3]: > 100 µM
- TGI [4]: > 100 µM
- TGI [5]: > 100 µM
- TGI [6]: > 100 µM
- TGI [7]: > 100 µM
- TGI [56]: > 100 µM
- TGI [8]: > 100 µM
- TGI [9]: > 100 µM
- TGI [10]: > 100 µM
- TGI [11]: > 100 µM
- TGI [12]: > 100 µM
- TGI [13]: > 100 µM
- TGI [14]: > 100 µM
- TGI [16]: > 100 µM
- TGI [18]: > 100 µM
- TGI [19]: > 100 µM
- TGI [20]: > 100 µM
- TGI [21]: > 100 µM
- TGI [22]: > 100 µM
- TGI [23]: > 100 µM
- TGI [24]: > 100 µM
- TGI [25]: > 100 µM
- TGI [26]: > 100 µM
- TGI [27]: > 100 µM
- TGI [28]: > 100 µM
- TGI [29]: > 100 µM
- TGI [30]: > 100 µM
- TGI [31]: > 100 µM
- TGI [32]: > 100 µM
- TGI [33]: > 100 µM
- TGI [34]: > 100 µM
- TGI [35]: > 100 µM
- TGI [36]: > 100 µM
- TGI [38]: > 100 µM
- TGI [39]: > 100 µM
- TGI [40]: > 100 µM
- TGI [41]: > 100 µM
- TGI [42]: > 100 µM
- TGI [43]: > 100 µM
- TGI [44]: > 100 µM
- TGI [45]: > 100 µM
- TGI [46]: > 100 µM
- TGI [47]: > 100 µM
- TGI [57]: > 100 µM
- TGI [49]: > 100 µM
- TGI [50]: > 100 µM
- TGI [51]: > 100 µM
- TGI [52]: > 100 µM
- TGI [53]: > 100 µM
- TGI [54]: > 100 µM
- TGI [55]: > 100 µM

SMILES: O=c1ccnc2c1ccc1[nH]cccc12
- TGI [1]: > 100 µM
- TGI [2]: > 100 µM
- TGI [3]: > 100 µM
- TGI [4]: > 100 µM
- TGI [6]: > 100 µM
- TGI [7]: > 100 µM
- TGI [56]: > 100 µM
- TGI [8]: > 100 µM
- TGI [9]: > 100 µM
- TGI [10]: > 100 µM
- TGI [11]: > 100 µM
- TGI [12]: > 100 µM
- TGI [13]: > 100 µM
- TGI [14]: > 100 µM
- TGI [15]: > 100 µM
- TGI [16]: > 100 µM
- TGI [18]: > 100 µM
- TGI [19]: > 100 µM
- TGI [20]: > 100 µM
- TGI [21]: > 100 µM
- TGI [22]: > 100 µM
- TGI [23]: > 100 µM
- TGI [24]: > 100 µM
- TGI [25]: > 100 µM
- TGI [26]: > 100 µM
- TGI [27]: > 100 µM
- TGI [28]: > 100 µM
- TGI [58]: > 100 µM
- TGI [29]: > 100 µM
- TGI [30]: > 100 µM
- TGI [31]: > 100 µM
- TGI [32]: > 100 µM
- TGI [33]: > 100 µM
- TGI [34]: > 100 µM
- TGI [35]: > 100 µM
- TGI [59]: > 100 µM
- TGI [37]: > 100 µM
- TGI [38]: > 100 µM
- TGI [40]: > 100 µM
- TGI [41]: > 100 µM
- TGI [42]: > 100 µM
- TGI [43]: > 100 µM
- TGI [44]: > 100 µM
- TGI [45]: > 100 µM
- TGI [46]: > 100 µM
- TGI [47]: > 100 µM
- TGI [57]: > 100 µM
- TGI [48]: > 100 µM
- TGI [49]: > 100 µM
- TGI [50]: > 100 µM
- TGI [51]: > 100 µM
- TGI [52]: > 100 µM
- TGI [53]: > 100 µM
- TGI [54]: > 100 µM
